US20050222126A1, “Antiangiogenic compounds and an assay for inhibitors of cell invasion” (priority 2001, published 2005)
“Also recorded” adds a separate entry of the source.

Assays:
MDA 231 cells [1] = test: Cell spreading and actin cytoskeleton on tissue culture plastic; type: cell-based, human
Description: The cells were plated on rigid tissue culture plastic in the presence of serum, which contains spreading factors (Ham). Under these conditions, most MDA 231 cells spread on the plastic within 4 h in the absence of Motuporamine C. […] These ruffles, which appear black in phase contrast microscopy represent sites of dynamic actin-mediated membrane movement in both spreading and migrating cells. […] These rounded cells remained attached to the tissue culture plastic by small lamellae that had small, discontinuous ruffles.
MDA 231 cells were also pre-spread for 20 hours on tissue culture plastic and then treated with Motuporamine C (5 μM) for 4 hours.

MDA 231 cells [2] = test: Assay for invasion inhibitors (Matrigel, recovery of non-invading cells, MTT); type: cell-based, human; conditions: for IC50: 2.5 h, read-out: IC50 invasion inhibition
Description: Matrigel (Collaborative Biomedical Products, Bedford, Mass.) was diluted 1:1 in ice-cold DMEM/F12 and 50 μl was pipetted into wells of ice-cold 96-well cell culture plates (Falcon) using ice-cold pipette tips, avoiding the sides of each well. The matrix was then allowed to gel and then dry overnight in a dry 37° C. incubator followed by rehydration with 100 μl of growth medium 1 h prior to cell plating. This treatment produces a matrix that is less prone to breakage. On top of the Matrigel, was added 100 μl medium warmed to 37° C., with or without 1 μl of sponge extract dissolved in DMSO, followed by 100 μl medium containing 60,000 MDA 231 cells. Addition of 1 μl of DMSO served as a negative control. 50 μM […] LY294002, a phosphatidylinositol 3-kinase inhibitor known to inhibit invasion, served as a positive control. The cells were then incubated for 2.5 h to allow invasion to take place.
Most of the cell culture, medium was removed without disturbing the cells. This may be accomplished using a hand-held pipettor, but more consistent results are achieved using the aspiration function of a Bio-Tek Elx405 96-well plate washer with the aspiration needle positioned about 2 mm above the surface of the Matrigel. […] The cells were then suspended by pipetting up and down three times using the 100 μl setting of a hand-held pipettor, and 100 μl was withdrawn and transferred to fresh plates without Matrigel containing 100 μl medium supplemented with 30% fetal calf serum to inactivate the trypsin. The cells were then incubated overnight to allow attachment of cells to the plastic surface. Live cells were measured using the MTT assay: the cell culture medium was replaced with 100 μl fresh medium and 25 μl of a 5 mg/ml solution of 3(4,5-dimethylthiazol-2-yl)-2,5-diphenyltetrazolium bromide in phosphate-buffered saline. After 2 hr at 37° C., the solution was removed and 100 μl of 20% sodium dodecyl sulfate dissolved in dimethylformamide: water (1:1) was added to lyse the cells. After overnight incubation at 37° C., absorbance was measured at 570 nm.

axonal growth cones = test: Neuronal migration in insect embryo model; type: in vivo; conditions: 5 μM
Description: Synthetic dihydromotuporamine (DiH-MPC, 5 μM) affected neuronal migration in a well-characterized insect embryo model. DiH-MPC slowed stereotypical migration of axonal growth cones whose ultimate synaptic targets are in the central nervous system (CNS). […] Therefore, the motuporamines have application in situations where reduced axonal sprouting would be of benefit after CNS wounding. This is of particular interest in spinal cord lesions where wound-induced axonal sprouting and migration (i.e. plasticity) leads to the inappropriate intermingling of neuronal pathways, which is a major impediment to clinically efficacious CNS regeneration.

[3] = tested on: primary Lewis lung tumour; test: Development of tumour metastases in vivo; conditions: i.p. 15 mg/kg/day, C57 mice, primary tumour irradiated
Description: Primary tumours were grown to a specific size and then irradiated permitting the animals to survive long enough for lung metastases to be quantified.

HUVEC [4] = test: HUVEC migration, modified Boyden chamber assay; type: cell-based, human; conditions: 2.5 μM and 5 μM, VEGF 15 ng/ml
Description: (§1) Motuporamine C had no effect on survival of confluent HUVEC at concentrations up to 10 μM and for up to 72 hours. […] Rather, Motuporamine C inhibited HUVEC migration as assessed using a modified Boyden chamber assay.

[5] = tested on: chick chorioallantoic membrane; test: Chick chorioallantoic membrane assay (CAM) for angiogenesis; type: in vivo, chicken; conditions: VEGF 30 ng/ml
Description: Fertilized white Leghorn chicken eggs were incubated at 37° C. under conditions of constant humidity. On embryonic day 6, the developing chorioallantoic membrane (CAM) was separated form the shell by opening a small circular window at the broad end of the egg above the air sac. After removal of the inner membrane, the opening was sealed with Parafilm and the eggs were incubated for 2 more days. Motuporamine C was prepared in PBS supplemented with 30 ng/ml VEGF. On day 8, 20 μl was loaded onto 2 mm^3 gelatin sponges (Gelfoam, Pharmacia Upjohn) that were placed on the surface of the developing CAM. Sponges containing vehicle alone (20 μl PBS) were used as negative controls whereas sponges containing 20 μl of 30 ng/ml VEGF in PBS were used as positive controls, Eggs were resealed and returned to the incubator. On day 10, images of CAM were captured digitally using an Olympus SZX9 stereomicroscope equipped with a Sport RT digital imaging system (Diagnostics Instruments).

HUVEC [6] = test: Endothelial sprouting assay; type: cell-based, human; conditions: VEGF 15 ng/ml
Description: Endothelial sprouting was assessed by a modification of Nehls, V. and Drenckham, D. (1995) Microvasc. Res, 50:311-322). Microcarrier beads coated with denatured collagen (Cytodex 3, Sigma) were seeded with HUVEC. When the cells reached confluence an the beads, equal numbers of HUVEC-coated beads were embedded in fibrin gels in 96-well plates. For preparation of fibrin gels, bovine fibrinogen was dissolved in MCDB medium at a concentration of 2.5 mg/ml. Aprotinin was added at a concentration of 0.05 mg/ml and the solution was filtered through a 0.22 μm filter. The fibrinogen solution was supplemented with 15 ng/ml vascular endothelial growth factor (VEGF) with or without Motuporamine C. As a control, fibrinogen solution without VEGF or Motuporamine C was used. […] After 3 days of incubation with daily changes of the medium, the number of capillary-like tubes formed per microcarrier bead (sprouts/bead) was counted by microscopy. Only sprouts greater than 150 μm in length and composed of at least 3 endothelial cells were counted.
In the endothelial sprouting assay, human umbilical vein endothelial cells (HUVEC) are seeded onto collagen-coated beads. Exposure to vascular endothelial growth factor stimulates the formation of capillary-like tubes called sprouts, whose number and length may be measured over time by microscopy.

[7] = tested on: Lewis Lung and SCCVII tumours; test: Tumour growth in vivo; conditions: i.p. daily, 10-15 mg/kg/day, mice
MDA 231 cells [8] = test: Cell migration: closure of gap in confluent monolayer; type: cell-based, human; conditions: 5 μM, 24 hours
Description: The effects of Motuporamine C on cell spreading and actin ruffling indicates invasion inhibition by decreasing cell migration. A sterile toothpick was drawn across a confluent monolayer of MDA 231 cells, leaving a cell-free gap of about 100 μm. Closure of the gap by cell migration was monitored by microscopy. In the absence of Motuporamine C, cells migrated into the gap and essentially closed it within 24 hours. These cells had broad lamellar ruffles along their leading edges throughout which were condensations of actin. […] These cells had only small and discontinuous ruffles along their leading edges and contained only small discrete patches of actin, looking similar to the “button-like” condensations observed in pre-spread cells.

MDA 231 cells [9] = test: Cytotoxicity: cell proliferation after 24 h incubation with compound; type: cell-based, human; conditions: for effects on cell proliferation: 24 h, proliferation followed up to 5 additional days
Description: The cytotoxic effects of Motuporamine C were examined by incubating cells in the presence of different concentrations of the compound for 24 h. Motuporamine C was washed away and cell proliferation was measured for up to 5 additional days. […] Likewise, the compounds shown in FIGS. 1, 2, 4, 5, 6, and 8-13 have low cytotoxicity.

HUVEC [10] = test: HUVEC survival and proliferation; type: cell-based, human
Description: as §1

Structure (SMILES): C=C1[C@@H](C)[C@H]2[C@H](Cc3ccccc3)NC(=O)[C@]23[C@H](OC(C)=O)/C=C/[C@@](C)(O)C(=O)[C@@H](C)C/C=C/[C@H]3[C@@H]1O [cytochalasin D, reference compound]
- actin cytoskeleton (MDA 231 cells [1]; 1 μg/ml): complete disassembly of the actin filaments
- rounding of pre-spread cells (MDA 231 cells [1]; 1 μg/ml): round up completely

Structure (SMILES): NCCCNCCCN1CCCCCCCCCCCC1 [Motuporamine A]
- IC50 (MDA 231 cells [2]; MDA 231 cells on Matrigel): 3 µM

Structure (SMILES): NCCCNCCCn1c2ccccc2c2ccccc21 [carbazole analog]
- activity in the invasion inhibition assay (in words) (MDA 231 cells [2]; MDA 231 cells on Matrigel): potent activity
- IC50 (MDA 231 cells [2]; MDA 231 cells on Matrigel): 3 µM

Structure (SMILES): NCCCNCCCN1CCCCCCCCCCCCCC1 [DiH-MPC, Dihydromotuporamine C]
- migration of axonal growth cones (axonal growth cones): slowed
- steering or pathfinding of growth cones (axonal growth cones): no steering or pathfinding deficits

Structure (SMILES): NCCCNCCCN1CCCC/C=C\CCCCCCCC1 [Motuporamine C]
- incidence of lung metastases [3]: decreased incidence
- migration of HUVEC towards VEGF (HUVEC [4]): inhibited the migration
- angiogenesis in CAM assay [5]: inhibits angiogenesis
- sprout formation in response to VEGF (HUVEC [6]; 2.5 μM): clear inhibition
- sprout formation in response to VEGF (HUVEC [6]; 5 μM): complete inhibition
- reduction in tumour growth rate compared to controls [7]: 25-50%
- tumour growth compared to vehicle controls [7]: significant decrease
- cell spreading (MDA 231 cells [1]; plated on plastic with serum, 4 h, increasing doses up to 5 μM): decreased cell spreading
- rounding of pre-spread cells (MDA 231 cells [1]; pre-spread 20 hours, 5 μM for 4 hours): did not round-up
- actin cytoskeleton (rhodamine-phalloidin staining) (MDA 231 cells [1]; pre-spread cells, 5 μM for 4 hours): subtle changes
- rounding of pre-spread cells (MDA 231 cells [1]; treatment up to 48 hours): did not cause significant cell rounding
- cell migration (gap closure) (MDA 231 cells [8]): slows cell migration
- effects on cell proliferation (MDA 231 cells [9]; 1.6 μM): no detectable effects
- effects on cell proliferation (MDA 231 cells [9]; 4 and 8 μM): mild inhibition
- cytotoxicity (in words) (MDA 231 cells [9]; proliferating MDA 231 cells, low micromolar concentrations): little or no toxicity
- detachment of cells from the matrix (MDA 231 cells [2]; 5 μM): did not cause the cells to detach
- activity in the invasion inhibition assay (in words) (MDA 231 cells [2]; MDA 231 cells on Matrigel): strong activity; also recorded: slightly more active
- concentration that completely inhibited invasion (MDA 231 cells [2]; MDA 231 cells on Matrigel): 5 µM
- IC50 (MDA 231 cells [2]; MDA 231 cells on Matrigel): 1 µM
- proliferation rate of HUVEC (HUVEC [10]): does not decrease
- survival of confluent HUVEC (HUVEC [10]; up to 10 μM, up to 72 hours): no effect
